Entries after “also recorded” stand apart in the source; their conditions may differ.
Key:
Type in all cases: in vivo, human
[1] = test system: treatment emergent mania (YMRS score); assay: Treatment-emergent mania/hypomania by Young Mania Rating Scale (YMRS) in the clinical trial
Protocol: (§1) 65 subjects with either bipolar disorder I or II, as determined by the Structured Clinical Interview for DSM-IV-Patient Version (SCID), were studied during a depressive episode, as determined by a Hamilton Depression Rating Scale (HAM-D) score of 16 or greater. […] HAM-D scores for every subject were evaluated and recorded once a week for twelve weeks following baseline assessment.
Tohen et al., (2003) Arch. Gen. Psychiatry, 60:1079-88.

[2] = test system: depressive episode in subjects with bipolar disorder I or II (HAM-D score); assay: Double-blind clinical trial of cytidine add-on to divalproex; HAM-D scores in bipolar depression
Text: The new methods are based on a double-blind, long-term clinical trial designed to assess the impact of cytidine on patients with bipolar disorder who were undergoing a major depressive episode.
as §1
The HAM-D scale is a 17-item scale used in the art to assess the severity of depression in patients already diagnosed with an affective disorder. Higher scores indicate more severe depression. Questions posed to subjects relate to symptoms such as depressed mood, guilty feelings, suicide, sleep disturbances, anxiety levels, and weight loss. Hamilton, (1960) J. Neurology and Neurosurgery in Psychiatry, 23:56-62.

[3] = test system: Glu, Gln, GABA and Lac in frontal gray matter (anterior cingulate); assay: Single voxel 1H MRS study of brain metabolites in frontal gray matter; conditions: for Gray Matter Glu Concentration, Mean / gray matter GABA concentration, Mean / gray matter Gln concentration, Mean / gray matter Lac concentration, Mean: cytidine group n = 19
Protocol: A companion imaging single voxel ^1H MRS study to the behavioral study described in Example 1 examined Glx and Lac changes in frontal gray matter. […] Brain MRS was performed using a 3.0 Tesla GE whole body imaging system (GE VH/i, USA). The localized MR spectra were recorded using a point-resolved spatially localized spectroscopy (PRESS) sequence on a General Electric 3T scanner, which was optimized for acquisition of ^1H MR spectra from the frontal lobe. Voxel size was 1.5×1.5×1.5 cm. The voxels were verified in scout views in T2 images obtained vertically in the Z-axis to include predominantly gray matter of the anterior cingulate for the frontal brain region. The acquisition parameters were: repetition time (TR), 2000 ms; echo time (TE), 35 ms; average=128, phase size-cycling=8, and acquisition time, 4 minutes 16 seconds.

[4] = over the 4 week period, p=0.032

Nc1ccn([C@@H]2O[C@H](CO)[C@@H](O)[C@H]2O)c(=O)n1 [cytidine]
subjects with treatment-emergent mania, modified criteria ([1]; YMRS less than 12 at baseline and greater than 12 subsequently, cytidine plus divalproex): no subjects; also recorded: one subject
subjects with treatment-emergent mania ([1]; YMRS less than 15 at baseline and 15 or greater anytime during the study, 12 weeks, cytidine plus divalproex): No subject
subjects with treatment-emergent hypomania ([1]; cutoff of YMRS score of 9, 12-week trial period, vs six on placebo, p=0.041): one subject
subjects with treatment emergent hypomania ([1]; cutoff of YMRS score of 10, cytidine plus divalproex): one subject
affective improvement compared to placebo supplementation (FIG. 1) ([2]; HAM-D, add-on to divalproex, twelve weeks): enhanced the affective improvement
mean difference in HAM-D scores between groups ([2]; cytidine vs placebo, both add-on to divalproex, week 2 through 12, oral cytidine 1 gram/day): 2.66±0.65
increase in antidepressant efficacy compared to divalproex alone ([2]; oral cytidine added to divalproex, bipolar depression): 10%
Gray Matter Glu Concentration, Mean ([3]; Baseline): 11.38 millimolar
gray matter GABA concentration, Mean ([3]; Baseline): 0.91 millimolar
gray matter Gln concentration, Mean ([3]; Baseline): 7.38 millimolar
gray matter Lac concentration, Mean ([3]; Baseline): 1.71 millimolar
Gray Matter Glu Concentration, Mean ([3]; Week 2): 9.18 millimolar
gray matter GABA concentration, Mean ([3]; Week 2): 0.97 millimolar
gray matter Gln concentration, Mean ([3]; Week 2): 7.21 millimolar
gray matter Lac concentration, Mean ([3]; Week 2): 1.44 millimolar
Gray Matter Glu Concentration, Mean ([3]; Week 4): 8.85 millimolar
gray matter GABA concentration, Mean ([3]; Week 4): 1.03 millimolar
gray matter Gln concentration, Mean ([3]; Week 4): 6.99 millimolar
gray matter Lac concentration, Mean ([3]; Week 4): 1.42 millimolar
decrease in Glu levels ([3]; over the 4-week period, p<0.01): 22.2%
decrease in Gln levels ([3]; over the 4-week period, p=0.241): 5.3%
decrease in Lac levels [3, 4]: 17.0%
increase in GABA levels [3, 4]: 13.2%

From patent publication US20090215714A1 (priority 2004, published 2009)
